In patent EP2970215B1, “PYRROLIDINE DERIVATIVES, PHARMACEUTICAL COMPOSITIONS CONTAINING THEM, AND THEIR USE IN THERAPY” (AbbVie Deutschland GmbH & Co. KG, priority 2013, dated 2014) one finds Ki data, which are given here for ten compounds.

Bounds are passed on as bounds.

By Ki is commonly meant a measure of affinity in units of concentration, obtained from inhibition or displacement.

The target in this test is T1, human GlyT1c transporter (Homo sapiens, UniProt P48067).
T1 construct: expressed in transfected cells; host or cells: CHO cells (recombinant; line hGlyT1c_5_CHO is named for the uptake assay)
T1 sequence (P48067 1-706): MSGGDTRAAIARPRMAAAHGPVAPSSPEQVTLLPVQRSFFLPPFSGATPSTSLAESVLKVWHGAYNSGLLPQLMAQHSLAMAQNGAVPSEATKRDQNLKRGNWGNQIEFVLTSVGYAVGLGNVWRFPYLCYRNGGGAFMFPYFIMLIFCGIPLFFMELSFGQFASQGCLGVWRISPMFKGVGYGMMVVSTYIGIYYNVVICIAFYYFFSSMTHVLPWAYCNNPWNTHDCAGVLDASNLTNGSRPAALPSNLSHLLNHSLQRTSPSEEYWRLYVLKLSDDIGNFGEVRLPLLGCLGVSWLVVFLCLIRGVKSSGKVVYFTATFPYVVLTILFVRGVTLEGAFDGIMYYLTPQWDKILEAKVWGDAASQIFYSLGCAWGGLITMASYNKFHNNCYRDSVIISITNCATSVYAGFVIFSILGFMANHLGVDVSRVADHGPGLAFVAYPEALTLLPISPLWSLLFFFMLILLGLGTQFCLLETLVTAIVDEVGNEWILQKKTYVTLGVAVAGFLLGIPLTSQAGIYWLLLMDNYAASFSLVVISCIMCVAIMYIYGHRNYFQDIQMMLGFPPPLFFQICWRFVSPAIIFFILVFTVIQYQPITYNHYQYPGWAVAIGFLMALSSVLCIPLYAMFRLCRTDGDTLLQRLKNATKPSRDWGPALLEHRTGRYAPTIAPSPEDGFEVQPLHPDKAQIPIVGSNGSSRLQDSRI
In words: Radioligand binding assay using recombinant CHO cell membranes expressing human GlyT1. Conditions: radioligand binding to human GlyT1c transporter-expressing membranes. From the text: 2. Radioligand binding assays using recombinant CHO cell membranes expressing human GlyT1: […]
For the compound `Cn1cnc(S(=O)(=O)N2C[C@@H](COc3ccc(F)c(C(F)(F)F)c3)[C@H](c3ccc(F)cc3)C2)c1` (relative stereo) [Example 295, 4-{[trans-3-(4-fluorophenyl)-4-{[4-fluoro-3-(trifluoromethyl)phenoxy]methyl}pyrrolidin-1-yl]sulfonyl}-1-methyl-1H-imidazole], the Ki is ≤ 0.1 µM. The value for `Cn1cnc(S(=O)(=O)N2C[C@H](Nc3ccc(Cl)c(C(F)(F)F)c3)[C@@H](C3CCCO3)C2)c1` (stereo partly drawn) [Example 619, (3R,4S)-N-[4-chloro-3-(trifluoromethyl)phenyl]-1-[(1-methyl-1H-imidazol-4-yl)sulfonyl]-4-(tetrahydrofuran-2-yl)pyrrolidin-3-amine] was ≤ 1 µM.

On to `Cn1cnc(S(=O)(=O)N2C[C@@H](Nc3ccc(Cl)c(F)c3)[C@H](c3ccc(F)cc3)C2)c1` (relative stereo) [Example 162, trans-N-(4-chloro-3-fluorophenyl)-4-(4-fluorophenyl)-1-[(1-methyl-1H-imidazol-4-yl)sulfonyl]pyrrolidin-3-amine], for which the Ki was ≤ 1 µM. The value for `N#Cc1cccc(N[C@@H]2CN(S(=O)(=O)CC3CC3)C[C@H]2c2ccccc2)c1` (relative stereo) [Example 133, 3-({trans-1-[(cyclopropylmethyl)sulfonyl]-4-phenylpyrrolidin-3-yl}amino)benzonitrile] was ≤ 10 µM.

Take `Cn1cnc(S(=O)(=O)N2C[C@@H](CNCc3ccccc3)[C@H](c3ccc(F)cc3)C2)c1` (relative stereo) [Example 315, N-benzyl-1-{trans-4-(4-fluorophenyl)-1-[(1-methyl-1H-imidazol-4-yl)sulfonyl]pyrrolidin-3-yl}methanamine]: the inhibition constant (Ki) was ≤ 1 µM. As to `Cn1cnc(S(=O)(=O)N2C[C@@H](N3Cc4ccc(Cl)cc4C3=O)[C@H](c3ccccn3)C2)c1` (relative stereo) [Example 381, 6-chloro-2-[Trans-1-[(1-methyl-1H-imidazol-4-yl)sulfonyl]-4-(pyridin-2-yl)pyrrolidin-3-yl]-2,3-dihydro-1H-isoindol-1-one], the inhibition constant Ki was ≤ 10 µM. In the case of `Cc1ccc(C(=O)N[C@@H]2CN(S(=O)(=O)c3cn(C)cn3)C[C@H]2c2ccccc2)cc1` (relative stereo) [Example 24, 4-methyl-N-{trans-1-[(1-methyl-1H-imidazol-4-yl)sulfonyl]-4-phenylpyrrolidin-3-yl}benzamide], the inhibition constant (Ki) was ≤ 10 µM. The value for `Cn1cnc(S(=O)(=O)N2C[C@H](NCc3cc4cccnc4s3)[C@@H](c3ccccc3)C2)c1` [Example 442, (3R,4S)-1-[(1-methyl-1H-imidazol-4-yl)sulfonyl]-4-phenyl-N-(thieno[2,3-b]pyridin-2-ylmethyl)pyrrolidin-3-amine] was ≤ 1 µM. `Cn1cnc(S(=O)(=O)N2C[C@@H](Nc3cccc(Cl)c3)[C@H](c3ccccc3Cl)C2)c1` (relative stereo) [Example 278, trans-4-(2-chlorophenyl)-N-(3-chlorophenyl)-1-[(1-methyl-1H-imidazol-4-yl)sulfonyl]pyrrolidin-3-amine]: the Ki is ≤ 0.1 µM. With `Cn1cnc(S(=O)(=O)N2C[C@H](Nc3cc(-c4ccccc4)ncn3)[C@@H](c3ccc(F)cc3)C2)c1` [Example 722, N-{(3R,4S)-4-(4-fluorophenyl)-1-[(1-methyl-1H-imidazol-4-yl)sulfonyl]pyrrolidin-3-yl}-6-phenylpyrimidin-4-amine] the figure was ≤ 0.01 µM.
